Test results published in patent US7247734B2 (Vernalis (Cambridge) Limited, priority 2001, dated 2007).
Like-named read-outs stand apart in the source and are kept apart here.

Biological target: T1, yeast HSP90 (Saccharomyces cerevisiae, UniProt P02829)
T1 construct: made in house; host or cells: E. coli
Experiment: Malachite green HSP90 ATPase assay
Type: biochemical
Source text: Two methods have been developed to measure the intrinsic ATPase activity of HSP90, using yeast HSP90 as a model system. The first method utilises a regenerating coupled enzyme assay. The second assay, based on the use of malachite green for the measurement of inorganic phosphate, was designed for high throughput screening (HTS) to identify novel HSP90 inhibitor drug candidates.
Colorimetric assays for the determination of phosphate, based on the formation of a phosphomolybdate complex, can be carried out in a few steps with inexpensive reagents and are well suited to the automation required for high throughput screening (see, e.g., Cogan et al., 1999). Enzymes that release inorganic phosphate are assayed using the reaction of the cationic dye, malachite green, with the a complex formed by a reaction of the inorganic phosphate with molybdate to generate a blue-green colour with an absorbance maximum at 610 nm (see, e.g., Baykov et al., 1988; Harder et al., 1994; Maehama et al., 2000). The method has been used in both high throughput (see, e.g., Rumsfeld et al., 2000) and ultra-high throughput screening formats (see, e.g., Layery et al., 2001) for a variety of non-HSP90 ATPases. However, this method is complicated by the non-enzymatic hydrolysis of ATP in the presence of acidic malachite green reagent, causing an increase in colour (see, e.g., Chan et al., 1986; Henkel et al., 1988). This process is mediated by molybdate and can be overcome by the addition of sodium citrate immediately after the reagent (see, e.g., Lanzetta et al., 1979; Schirmer et al., 1998; Baginski et al., 1975). This modification has been adapted to the 96-well microtitre plate assay previously described for other ATPases (see, e.g., Lanzetta et al., 1979) to produce the following protocol for HSP90 ATPase, which is suitable for high throughput screening.
Chemicals are of the highest purity commercially available and all aqueous solutions are made up in AR water. Because of the need to minimise contamination with inorganic phosphate, precautions should be taken with solutions and apparatus used in the assays. Glassware and pH meters are rinsed with double distilled or deionised water before use and, wherever possible, plastic ware should be used. Gloves are worn for all procedures. • (1) Immulon 96-well (Thermo Labsystems, Basingstoke, UK) or Cliniplate 384-well flat-bottomed polystyrene multiwell plates (Thermo Labsystems). • (2) Assay buffer of (a) 100 mM Tris-HCl, pH 7.4, (b) 20 mM KCl, (c) 6 mM MgCl2. Stored at 4° C. • (3) 0.0812% (w/v) malachite green (M 9636, Sigma Aldrich Ltd., Poole, UK). Stored at room temperature. • (4) 2.32% (w/v) polyvinyl alcohol USP (P 1097, Sigma Aldrich Ltd, Poole, UK) in boiling water (see Comment 1), allowed to cool, and stored at room temperature. • (5) 5.72% (w/v) ammonium molybdate in 6 M hydrochloric acid. Stored at room temperature. • (6) 34% (w/v) sodium citrate. Stored at room temperature. • (7) ATP, disodium salt, special quality (519979, Boehringer Mannheim, Lewes, UK). Stored at 4° C. • (8) E. coli expressed yeast HSP90 protein, purified >95% (see, e.g., Panaretou et al., 1998) and stored at −80° C. as 10 μl aliquots containing 0.5 mg of protein. Method
The following protocol was used: • (1) On the day of use, prepare the malachite green reagent from the stock solutions. Mix (a) 2 parts of malachite green, (b) 1 part of polyvinyl alcohol, (c) 1 part of ammonium molybdate, and (d) 2 parts of water. Initially, the reagent is a dark brown colour, but after standing at room temperature for about 2 h, this becomes a golden yellow colour and is ready for use. • (2) For the high throughput screening assays, the test compounds are dissolved at 200 μM in 2.0% DMSO and contained in daughter plates derived from the chemical libraries. Transfer 5 μl of each sample from the daughter plate to each well of the assay plate using automated equipment (see Comment 3). This represents a final concentration in the well of 40 μM.

[1] = activity class, read-out: Hsp90 IC50
[2] = activity range, ATPase assay, read-out: ATPase IC50

T1 sequence (P02829 whole entry, looked up): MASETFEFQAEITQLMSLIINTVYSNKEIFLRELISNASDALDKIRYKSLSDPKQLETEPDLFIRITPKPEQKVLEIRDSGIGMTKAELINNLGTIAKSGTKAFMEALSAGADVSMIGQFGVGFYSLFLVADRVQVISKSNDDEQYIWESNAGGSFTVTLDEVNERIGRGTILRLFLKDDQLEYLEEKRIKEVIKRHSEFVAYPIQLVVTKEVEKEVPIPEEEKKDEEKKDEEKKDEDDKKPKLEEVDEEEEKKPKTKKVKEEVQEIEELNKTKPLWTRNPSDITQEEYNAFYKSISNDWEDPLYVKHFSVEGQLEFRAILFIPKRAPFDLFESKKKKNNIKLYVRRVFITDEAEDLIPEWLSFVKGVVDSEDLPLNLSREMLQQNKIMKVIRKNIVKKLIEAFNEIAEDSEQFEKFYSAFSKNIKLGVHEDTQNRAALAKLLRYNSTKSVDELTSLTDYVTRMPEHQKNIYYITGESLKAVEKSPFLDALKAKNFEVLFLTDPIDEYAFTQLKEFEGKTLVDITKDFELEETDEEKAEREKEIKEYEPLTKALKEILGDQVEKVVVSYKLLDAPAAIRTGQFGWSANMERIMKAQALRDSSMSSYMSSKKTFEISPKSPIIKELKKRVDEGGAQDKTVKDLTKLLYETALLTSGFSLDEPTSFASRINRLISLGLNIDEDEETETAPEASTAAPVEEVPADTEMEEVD

Row | SMILES | IC50 [1] [µM] | other results
1 | CCc1cc(-c2n[nH]cc2-c2ccccc2)c(O)cc1O [Example 54] | < 10 | 
2 | CCc1cc(-c2n[nH]c(C)c2-c2nc3ccccc3s2)c(O)cc1OCC(=O)NN [Example 119] | > 10 | 
3 | CCc1cc(-c2n[nH]c(C(F)(F)F)c2-c2nc3ccccc3s2)c(O)cc1O [Example 84] | 10 to 100 | 
4 | OCCn1cc(-c2ccc(Br)cc2)c(-c2cc(Cl)c(O)cc2O)n1 [Example 166, 4-[4-(4-Bromo-phenyl)-1-(2-hydroxy-ethyl)-1H-pyrazol-3-yl]-6-chloro-benzene-1,3-diol] |  | IC50 [2]: > 50 µM
5 | Cc1[nH]nc(-c2cc(F)ccc2O)c1-c1ccc2c(c1)OCCO2 [Example 108] | < 10 | 
6 | Cc1[nH]nc(-c2ccc(O)cc2O)c1-c1ccccc1 [Example 59] | > 10 | 
7 | CCc1cc(-c2n[nH]cc2-c2ccc3c(c2)OCO3)c(O)cc1OC [Example 120] | > 10 | 
8 | N#CCCCOc1ccc(-c2cn[nH]c2-c2cc(Cl)c(O)cc2O)cc1 [Example 61] | < 10 | 
9 | Cc1[nH]nc(-c2cc(Cl)c(O)cc2O)c1-c1ccccc1Br [Example 69] | 10 to 100 | 
10 | Oc1cc(O)c(-c2n[nH]cc2-c2ccc3c(c2)CCO3)cc1Cl [Example 173] |  | IC50 [2]: < 50 µM
11 | COc1ccc(-c2c(-c3cc(Br)c(O)cc3O)n[nH]c2C)cc1 [Example 93, 4-Bromo-6-[4-(4-methoxy-phenyl)-5-methyl-1H-pyrazol-3-yl]-benzene-1,3-diol] |  | IC50 (Hsp90 IC50, activity class): < 10 µM
12 | COc1ccc(-c2c(-c3cc(CCc4ccccc4)c(O)cc3O)n[nH]c2C)cc1 [Example 95] | < 10 | 
13 | COc1ccc(-c2cn(C)nc2-c2cc(Cl)c(O)cc2O)cc1OC [Example 165] |  | IC50 [2]: > 50 µM
14 | Oc1cc(O)c(-c2n[nH]cc2-c2ccc(-c3ccc(F)cc3)cc2)cc1Cl [Example 62] | < 10 | 
15 | Cc1[nH]nc(-c2ccc(C#N)cc2)c1-c1ccc2c(c1)OCCO2 [Example 117] | > 10 | 
16 | COc1ccc(-c2c(-c3ccc(O)c(C)c3O)n[nH]c2C)cc1 [Example 132] | > 10 | 
17 | Cc1[nH]nc(-c2ccc(O)cc2O)c1-c1ccc2c(c1)OCCO2 [Example 81] |  | IC50 (Hsp90 IC50, activity class): 10 to 100 µM
18 | O=C(O)c1ccc(-c2c[nH]nc2-c2cc(Cl)c(O)cc2O)cc1 [Example 182] |  | IC50 [2]: < 50 µM
19 | Oc1cc(O)c(-c2n[nH]cc2-c2ccncc2)cc1Cl [Example 175] |  | IC50 [2]: < 50 µM
20 | Cc1c(-c2ccccc2)c(-c2cc(Cl)c(O)cc2O)nn1C [Example 164, 4-Chloro-6-(1,5-dimethyl-4-phenyl-1H-pyrazol-3-yl)-benzene-1,3-diol] |  | IC50 [2]: > 50 µM

Row | SMILES | IC50 [1] [µM] | other results
21 | N#CCCCCOc1cccc(-c2c[nH]nc2-c2cc(Cl)c(O)cc2O)c1 [Example 155] | < 10 | 
22 | Cc1[nH]nc(-c2cc(Cl)ccc2O)c1-c1ccc2c(c1)OCCO2 [Example 107] | 10 to 100 | 
23 | CNC(=O)c1[nH]nc(-c2cc(Cl)c(O)cc2O)c1-c1ccc(OC)cc1 [Example 168, 5-(5-Chloro-2,4-dihydroxy-phenyl)-4-(4-methoxy-phenyl)-2H-pyrazole-3-carboxylic acid methylamide] |  | IC50 (ATPase IC50, activity range, ATPase assay): < 50 µM
24 | CCc1cc(-c2nn(C)cc2-c2ccc(OC)c(OC)c2)c(O)cc1O [Example 162, 4-[4-(3,4-Dimethoxy-phenyl)-1-methyl-1H-pyrazol-3-yl]-6-ethyl-benzene-1,3-diol] |  | IC50 [2]: > 50 µM
25 | N#CCCCOc1ccccc1-c1c[nH]nc1-c1cc(Cl)c(O)cc1O [Example 74] | < 10 | 
26 | Cc1nc2cc(-c3c[nH]nc3-c3cc(Cl)c(O)cc3O)ccc2s1 [Example 176] |  | IC50 [2]: < 50 µM
27 | CCCc1cc(-c2n[nH]c(C)c2-c2ccc3c(c2)OCO3)c(O)cc1O [CCT018158] |  | IC50 (malachite green assay, 1 mM ATP, ±SD if n=3–5, read-out: HSP90 ATPase inhibition IC50): 19 µM
28 | CCc1cc(-c2[nH]nc(CCC(=O)O)c2-c2nc3ccccc3n2C)c(O)cc1O [Example 99] | 10 to 100 | 
29 | Cc1[nH]nc(-c2ccc(O)cc2O)c1-c1ccc2c(c1)OCCCO2 [Example 86] | > 10 | 
30 | COc1ccc(-c2c(-c3cc(Cl)c(F)cc3O)n[nH]c2C)cc1 [Example 147] | > 10 | 
31 | CCc1cc(-c2n[nH]cc2-c2cnn(-c3ccccc3)c2)c(O)cc1O [Example 145] | > 10 | 
32 | Cc1[nH]nc(-c2ccc(C(N)=O)cc2)c1-c1ccc2c(c1)OCCO2 [Example 158] |  | IC50 [2]: > 50 µM
33 | Cc1nc(-c2c[nH]nc2-c2ccc(O)cc2O)cs1 [Example 129] | > 10 | 
34 | CCc1cc(-c2n[nH]cc2-c2ccc3c(c2)OCCO3)c(O)cc1O [Example 83] | < 10 | 
35 | CNC(=O)c1ccc(-c2c[nH]nc2-c2cc(Cl)c(O)cc2O)cc1 [Example 180] |  | IC50 [2]: < 50 µM
36 | NC(=O)c1ccc(-c2c[nH]nc2-c2cc(Cl)c(O)cc2O)cc1 [Example 181] |  | IC50 [2]: < 50 µM
37 | Cc1[nH]nc(-c2cc(Cl)c(O)cc2O)c1-c1ccc2c(c1)OCCO2 [Example 109] |  | IC50 (Hsp90 IC50, activity class): < 10 µM
38 | Oc1cc(O)c(-c2n[nH]cc2-c2ccccc2)cc1Cl [Example 53] | < 10 | 
39 | CCc1cc(-c2n[nH]cc2-c2ccc([N+](=O)[O-])cc2)c(O)cc1OC [Example 80] | 10 to 100 | 
40 | COc1ccc(-c2c(-c3cc(-c4ccccc4)c(O)cc3O)n[nH]c2C)cc1 [Example 94] | < 10 | 

The next lines start with results.

Row | IC50 [1] [µM] | SMILES | other results
41 | 10 to 100 | CCCc1cc(-c2n[nH]c(C)c2-c2ccc3c(c2)OCCO3)c(O)cc1O [Example 88] | 
42 | < 10 | CCc1cc(-c2n[nH]cc2-c2ccc3c(c2)OCO3)c(O)cc1O [Example 87] | 
43 | > 10 | COc1ccc(-c2n[nH]cc2-c2ccc3c(c2)OCCO3)c(O)c1 [Example 122] | 
44 | > 10 | CCOC(=O)c1cccc(-c2n[nH]c(C)c2-c2ccc3c(c2)OCCO3)c1 [Example 116] | 
45 | > 10 | O=C(O)COc1ccc(-c2n[nH]cc2-c2ccc3c(c2)OCCO3)c(O)c1 [Example 125] | 
46 | < 10 | Oc1cc(O)c(-c2n[nH]cc2-c2ccccc2F)cc1Cl [Example 65] | 
47 | > 10 | Cc1[nH]nc(-c2ccc(C(=O)O)cc2)c1-c1ccc2c(c1)OCCO2 [Example 115] | 
48 | < 10 | COc1ccc(-c2c[nH]nc2-c2cc(Cl)c(O)cc2O)cc1OC [Example 52] | 
49 | > 10 | Cc1[nH]nc(-c2ccc3c(c2O)OCO3)c1-c1ccc2c(c1)OCCO2 [Example 121] | 
50 | 10 to 100 | CCc1cc(-c2n[nH]cc2-c2ccc(OC)cc2)c(O)cc1O [Example 141] | 
51 | < 10 | Cc1[nH]nc(-c2cc(Cl)c(O)cc2O)c1-c1ccccc1 [Example 78] | 
52 | > 10 | CCc1cc(-c2n[nH]cc2-c2nc(C)cs2)c(O)cc1OCc1cccc(C)c1 [Example 124] | 
53 | 10 to 100 | CCc1cc(-c2n[nH]cc2-c2cscn2)c(O)cc1O [Example 91] | 
54 | < 10 | Oc1cc(O)c(-c2n[nH]cc2-c2ccc(Br)cc2)cc1Cl [Example 57] | 
55 | > 10 | Cc1ccc(-n2cc(-c3c[nH]nc3-c3ccc(O)cc3O)cn2)cc1 [Example 136] | 
56 | > 10 | Cc1[nH]nc(-c2cc(Cl)c(O)cc2O)c1-c1ccccc1 [Example 127] | 
57 | > 10 | COc1ccc(-c2c(C)n[nH]c2-c2cc(C)nc(N)n2)cc1 [Example 152, 4-[4-(4-Methoxy-phenyl)-5-methyl-2H-pyrazol-3-yl]-6-methyl-pyrimidin-2-ylamine] | 
58 | > 10 | Cc1[nH]nc(-c2cccc(Cl)c2Cl)c1-c1ccc2c(c1)OCCO2 [Example 150] | 
59 | > 10 | CCOC(=O)c1ccc(-c2n[nH]c(C)c2-c2ccc3c(c2)OCCO3)cc1 [Example 114] | 
